The results in this text go back to patent EP0268915A2, “Trifluoromethylcarbonyl derivatives” (BAYER AG, priority 1986, dated 1988).

Common to all, as to format: in vivo
Data set [1] deals with Lucilia cuprina resistent-Larven. As to the kind of experiment: Test with resistant Lucilia cuprina larvae. Particulars: 24 h, Wirkstoffkonzentration 100 ppm, nach 24 Stunden, read-out: Abtötung. An excerpt:
Test mit Lucilia cuprina resistent-Larven
Emulgator: 35 Gewichtsteile Ethylenglykolmonomethylether 35 Gewichtsteile Nonylphenolpolyglykolether
Zur Herstellung einer zweckmäßigen Wirkstoffzubereitung vermischt man drei Gewichtsteile Wirkstoff mit sieben Gewichtsteilen des oben angegebenen Gemisches und verdünnt das so erhaltene Konzentrat mit Wasser auf die jeweils gewünschte Konzentration.
Etwa 20 Lucilia cuprina res.-Larven werden in ein Teströhrchen gebracht, welches ca. 1 cm^3 Pferdefleisch und 0,5 ml der Wirkstoffzubereitung enthält. Nach 24 Stunden wird der Abtötungsgrad bestimmt.

The next data set has as its system Aphis fabae. Kind of data set: Aphis test (systemic action, soil drench of bean plants). The note with it: 96 h, read-out: Wirkung (Abtötung in %). The procedure: Aphis-Test (systemische Wirkung)
(§1) Lösungsmittel: 7 Gewichtsteile Dimethylformamid Emulgator: 1 Gewichtsteil Alkylarylpolyglykolether
Zur Herstellung einer zweckmäßigen Wirkstoffzubereitung vermischt man 1 Gewichtsteil Wirkstoff mit der angegebenen Menge Lösungsmittel und der angegebenen Menge Emulgator und verdünnt das Konzentrat mit Wasser auf die gewünschte Konzentration.
Mit je 20 ml Wirkstoffzubereitung der gewünschten Konzentration werden Bohnenpflanzen (Vicia faba), die stark von der schwarzen Bohnenlaus (Aphis fabae) befallen sind, angegossen, so daß die Wirkstoffzubereitung in den Boden eindringt, ohne den Sproß zu benetzen. Der Wirkstoff wird von den Wurzeln aufgenommen und in den Sproß weitergeleitet.
Nach der gewünschten Zeit wird die Abtötung in % bestimmt. Dabei bedeutet 100 %, daß alle Blattläuse abgetötet wurden; 0 % bedeutet, daß keine Blattläuse abgetötet wurden.

The test system of data set [2] is Phaedon cochleariae-Larven. As to the kind of experiment: Critical concentration test / root-systemic action, Phaedon cochleariae larvae. The note with it: Wirkstoffkonzentration 20 ppm im Boden, Kohl (Brassica oleracea), Besatz nach 7 Tagen, Auswertung nach weiteren 2 Tagen. The source says:
Grenzkonzentrations-Test / Wurzelsystemische Wirkung Testinsekt: Phaedon cochleariae-Larven Lösungsmittel: 3 Gewichtsteile Aceton
Emulgator: 1 Gewichtsteil Alkylarylpolyglykolether
(§2) Zur Herstellung einer zweckmäßigen Wirkstoffzubereitung vermischt man 1 Gewichtsteil Wirkstoff mit der angegebenen Menge Lösungsmittel, gibt die angegebene Menge Emulgator zu und verdünnt das Konzentrat mit Wasser auf die gewünschte Konzentration.
(§3) Die Wirkstoffzubereitung wird innig mit Boden vermischt. Dabei spielt die Konzentration des Wirkstoffs in der Zubereitung praktisch keine Rolle, entscheidend ist allein die Wirkstoffgewichtsmenge pro Volumeneinheit Boden, welche in ppm (= mg/1) angegeben wird. Man füllt den behandelten Boden in Töpfe und bepflanzt diese mit Kohl (Brassica oleracea). Der Wirkstoff kann so von den Pflanzenwurzeln aus dem Boden aufgenommen und in die Blätter transportiert werden.
(§4) Für den Nachweis des wurzelsystemischen Effektes werden nach 7 Tagen ausschließlich die Blätter mit den obengenannten Testtieren besetzt. Nach weiteren 2 Tagen erfolgt die Auswertung durch Zählen oder Schätzen der toten Tiere. Aus den Abtötungszahlen wird die wurzelsystemische Wirkung des Wirkstoffs abgeleitet. Sie ist 100 %, wenn alle Testtiere abgetötet sind und 0 %, wenn noch genau so viele Testinsekten leben wie bei der unbehandelten Kontrolle.

The next data set deals with Myzus persicae. As to the kind of experiment: Critical concentration test / root-systemic action, Myzus persicae. The note with it: Wirkstoffkonzentration 20 ppm im Boden, Kohl (Brassica oleracea), Besatz nach 7 Tagen, Auswertung nach weiteren 2 Tagen; for mortality at 20 µg/mL: Myzus persicae, 48 h, read-out: wurzelsystemische Wirkung.
Description: Grenzkonzentrations-Test / Wurzelsystemische Wirkung Testinsekt: Myzus persicae Lösungsmittel: 3 Gewichtsteile Aceton Emulgator: 1 Gewichtsteil Alkylarylpolyglykolether
as §2, §3, §4

For the next data set, the system named is Nephotettix cincticeps. Kind of data set: Nephotettix test (rice seedlings dipped in the active compound preparation). Particulars: for mortality at 0.0001 %: Nephotettix cincticeps, 144 h, read-out: Wirkung (Abtötung in %).
Description: as §1
Zur Herstellung einer zweckmäßigen Wirkstoffzubereitung vermischt man 1 Gewichstteil Wirkstoff mit der angegebenen Menge Lösungsmittel und der angegebenen Menge Emulgator und verdünnt das Konzentrat mit Wasser auf die gewünschte Konzentration.
Reiskeimlinge (Oryza sativa) werden durch Tauchen in die Wirkstoffzubereitung der gewünschten Konzentration behandelt und mit der Grünen Reiszikade (Nephotettix cincticeps) besetzt, solange die Keimlinge noch feucht sind.
Nach der gewünschten Zeit wird die Abtötung in % bestimmt. Dabei bedeutet 100 %, daß alle Zikaden abgetötet wurden; 0 % bedeutet, daß keine Zikaden abgetötet wurden.

The mark [3] stands for this setting: Wirkstoffkonzentration 0,01 %, nach 4 Tagen, Bohnenpflanzen (Vicia faba) angegossen, systemisch.
Where [4] appears, read: Wirkstoffkonzentration 0,0001 %, nach 6 Tagen, Reiskeimlinge (Oryza sativa) getaucht.

Where two headings read alike, the source gives them in different places.

On to `O=C(C(C(=O)C(F)(F)F)=C1NCCCN1Cc1ccc(Cl)nc1)C(F)(F)F` [Beispiel 9], for which the mortality at 100 µg/mL in data set [1] is 100%.

As for `O=C(C=C1NCCCN1Cc1ccc(Cl)nc1)C(F)(F)F` [Beispiel 8], the mortality at 0.01 % in the data set with Aphis fabae (setting [3]) is 100%. For the same compound, the mortality at 20 µg/mL amounted to 100% in data set [2] (Phaedon, 48 h, read-out: wurzelsystemische Wirkung) and 100% in the data set on Myzus persicae. Moreover, in data set [1], the mortality at 100 µg/mL stood at 100%.

Turning to `O=C(C(C(=O)C(F)(F)F)=C1NCCN1Cc1ccc(Cl)nc1)C(F)(F)F` [Beispiel 5, 2-[(Di-trifluormethylcarbonyl)-methylen]-3-(6-chlor-pyrid-3-yl)-methylimidazolidin], the mortality at 0.0001 % in the data set with Nephotettix cincticeps (setting [4]) came to 100%. The mortality at 0.01 % in the data set on Aphis fabae (setting [3]) stood at 100%. For the same compound, the mortality at 20 µg/mL in the data set with Myzus persicae was 100%. Besides, the mortality at 100 µg/mL in data set [1] stood at 100%.

Turning to `O=C(C=C1NCCN1Cc1ccc(Cl)nc1)C(F)(F)F` [Beispiel 4, 1-(6-Chlor-pyrid-3-yl)-methyl-2-(trifluormethylcarbonylmethylen)-imidazolidin], in the data set with Aphis fabae (setting [3]), the mortality at 0.01 % was 100%. In addition, the mortality at 20 µg/mL with Myzus persicae was determined as 100%. Further, the mortality at 100 µg/mL in data set [1] is 100%.

For `O=[N+]([O-])C=C1NCCCS1` [Vergleichssubstanz (A), Tetrahydro-2-nitromethylen-2H-1,3-thiazin, reference compound], in the data set with Nephotettix cincticeps, the mortality at 0.0001 % worked out at 20%. The mortality at 0.01 % in the data set with Aphis fabae is 50%. Moreover, the “wurzelsystemische Wirkung” value (in data set [2]; in the data set on Myzus persicae) was “keine Wirkung” in each case.

On to `O=C(C=C1SCCN1Cc1ccc(Cl)nc1)C(F)(F)F` [Beispiel 3, 3-(6-Chlor-pyrid-3-yl)-methyl-2-(trifluormethylcarbonylmethylen)-1,3-thiazolidin], for which the “Wirkung (Abtötung in %)” value with Nephotettix cincticeps (setting [4]) is on record as 90%. Also, the “wurzelsystemische Wirkung” value (in data set [2]; in the data set with Myzus persicae) was 100% in each case.
